Experimental data from ChEMBL document CHEMBL1909046, “DrugMatrix in vitro pharmacology data”.

Legend:
[1] = molecular target: Beta-1 adrenergic receptor (Homo sapiens, UniProt P08588); assay: DRUGMATRIX: Adrenergic beta1 radioligand binding (ligand: [125I] Cyanopindolol); format: cell membranes, CHO-K1, Membrane; conditions: Not Active = under 50% inhibition at 10 µM
[2] = DRUGMATRIX: ATPase, Na+/K+ enzyme inhibition (substrate: ATP); format: tissue-based, Sus scrofa, Heart; conditions: Not Active = under 50% inhibition at 10 µM
B2 bradykinin receptor = molecular target: T1, B2 bradykinin receptor (Homo sapiens, UniProt P30411); format: cell membranes, Membrane; conditions: chem-1; note: in other assays of this panel Not Active means under 50% inhibition at 10 µM
T1 sequence (P30411 whole entry): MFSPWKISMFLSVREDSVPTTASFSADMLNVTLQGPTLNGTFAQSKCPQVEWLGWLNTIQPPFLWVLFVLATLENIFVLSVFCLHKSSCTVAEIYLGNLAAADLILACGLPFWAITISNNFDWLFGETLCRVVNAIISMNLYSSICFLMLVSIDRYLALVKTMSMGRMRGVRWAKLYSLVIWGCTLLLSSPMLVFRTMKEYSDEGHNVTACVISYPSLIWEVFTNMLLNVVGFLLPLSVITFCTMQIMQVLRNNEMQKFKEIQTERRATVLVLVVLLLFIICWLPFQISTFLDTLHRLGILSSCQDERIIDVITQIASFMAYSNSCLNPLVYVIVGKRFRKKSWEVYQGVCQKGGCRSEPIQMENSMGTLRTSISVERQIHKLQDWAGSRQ

Carbonic anhydrase 2 = Carbonic anhydrase 2 (Homo sapiens, UniProt P00918); assay: DRUGMATRIX: Carbonic Anhydrase II enzyme inhibition (substrate: 4-Nitrophenyl acetate (4-NPA)); format: tissue-based, Erythrocyte; conditions: erythrocyte; Not Active = under 50% inhibition at 10 µM
[3] = molecular target: C-C chemokine receptor type 5 (Homo sapiens, UniProt P51681); format: cell membranes, HEK293, Membrane; note: in other assays of this panel Not Active means under 50% inhibition at 10 µM
[4] = molecular target: T2, 3-hydroxy-3-methylglutaryl-coenzyme A reductase (Homo sapiens, UniProt P04035); design: species or system Escherichia coli;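 note: enzyme inhibition assay of HMG-CoA reductase using radiolabeled [14C]HMG-CoA as substrate; in other assays of this panel Not Active means under 50% inhibition at 10 µM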
T2 sequence (P04035 whole entry): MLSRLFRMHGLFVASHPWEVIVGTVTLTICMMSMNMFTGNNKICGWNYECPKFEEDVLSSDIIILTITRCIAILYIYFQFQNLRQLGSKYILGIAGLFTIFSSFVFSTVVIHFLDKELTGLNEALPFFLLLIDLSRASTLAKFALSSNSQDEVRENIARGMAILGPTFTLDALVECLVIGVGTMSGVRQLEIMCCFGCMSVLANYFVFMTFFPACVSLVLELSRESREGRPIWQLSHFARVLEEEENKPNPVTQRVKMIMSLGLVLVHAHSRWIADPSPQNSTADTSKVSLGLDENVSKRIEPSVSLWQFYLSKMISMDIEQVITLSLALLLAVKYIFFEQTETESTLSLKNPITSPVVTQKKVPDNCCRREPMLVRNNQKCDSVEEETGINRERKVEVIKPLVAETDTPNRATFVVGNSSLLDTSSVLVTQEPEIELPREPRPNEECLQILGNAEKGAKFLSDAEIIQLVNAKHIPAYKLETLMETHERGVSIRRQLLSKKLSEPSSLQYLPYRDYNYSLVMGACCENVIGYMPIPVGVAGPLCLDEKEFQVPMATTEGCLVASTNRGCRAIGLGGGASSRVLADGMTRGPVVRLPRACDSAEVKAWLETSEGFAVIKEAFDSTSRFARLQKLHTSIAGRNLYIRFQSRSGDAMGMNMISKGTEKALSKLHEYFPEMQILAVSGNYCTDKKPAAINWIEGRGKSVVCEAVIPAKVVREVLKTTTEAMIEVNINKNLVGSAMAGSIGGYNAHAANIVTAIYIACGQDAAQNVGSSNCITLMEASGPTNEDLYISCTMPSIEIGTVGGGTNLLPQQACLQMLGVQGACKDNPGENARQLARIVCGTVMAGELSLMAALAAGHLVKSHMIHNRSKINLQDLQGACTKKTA

[5] = molecular target: Protein phosphatase 3 catalytic subunit alpha (Homo sapiens, UniProt Q08209); design: species or system Escherichia coli;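 note: inhibition of calcineurin (PP2B) enzyme activity, measured with DiFMUP as the substrate; in other assays of this panel Not Active means under 50% inhibition at 10 µM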

C-C chemokine receptor type 5, sequence (P51681 whole entry): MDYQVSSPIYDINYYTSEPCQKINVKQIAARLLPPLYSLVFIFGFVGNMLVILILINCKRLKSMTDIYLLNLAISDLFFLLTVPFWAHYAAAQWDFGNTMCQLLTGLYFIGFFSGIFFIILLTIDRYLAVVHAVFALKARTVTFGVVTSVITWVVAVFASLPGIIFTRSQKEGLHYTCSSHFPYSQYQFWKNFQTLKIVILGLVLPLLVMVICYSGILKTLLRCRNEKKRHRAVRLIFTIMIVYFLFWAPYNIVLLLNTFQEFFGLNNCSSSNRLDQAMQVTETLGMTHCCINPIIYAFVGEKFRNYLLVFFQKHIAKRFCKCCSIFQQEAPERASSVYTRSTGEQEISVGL
Beta-1 adrenergic receptor, sequence (P08588 whole entry): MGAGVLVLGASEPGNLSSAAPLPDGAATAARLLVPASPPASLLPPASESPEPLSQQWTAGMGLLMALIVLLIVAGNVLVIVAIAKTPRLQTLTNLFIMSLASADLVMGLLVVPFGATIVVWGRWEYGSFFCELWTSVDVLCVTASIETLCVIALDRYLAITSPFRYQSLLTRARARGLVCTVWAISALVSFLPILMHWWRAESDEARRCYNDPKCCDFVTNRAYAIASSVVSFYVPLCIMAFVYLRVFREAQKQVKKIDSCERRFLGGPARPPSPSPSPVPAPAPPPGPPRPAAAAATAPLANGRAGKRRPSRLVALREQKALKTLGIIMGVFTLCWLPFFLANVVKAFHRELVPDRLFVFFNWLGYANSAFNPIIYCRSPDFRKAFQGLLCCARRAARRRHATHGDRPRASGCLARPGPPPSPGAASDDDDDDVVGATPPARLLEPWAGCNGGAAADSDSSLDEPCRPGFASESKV

Structure (SMILES)	IC50 ([1]; cho-k1)	IC50 [2]	Ki [2]	IC50 (B2 bradykinin receptor)	IC50 (Carbonic anhydrase 2)	IC50 ([3]; hek293)	IC50 [4]	IC50 [5]	IC50 ([3]; read-out: IC50) [µM]	Ki ([3]; read-out: Ki) [µM]	IC50 ([1]; read-out: IC50) [nM]	Ki ([1]; read-out: Ki) [nM]
C#C[C@]1(O)CC[C@H]2[C@@H]3[C@H](C)CC4=C(CCC(=O)C4)[C@H]3CC[C@@]21C [TIBOLONE]	Not Active	Not Active	Not Active	Not Active	Not Active	Not Active	Not Active	Not Active				
CN1C(=O)OC(C)(C)C1=O [TRIMETHADIONE]	Not Active	Not Active	Not Active	Not Active	Not Active	Not Active	Not Active	Not Active				
OC[C@@H](O)[C@@H](O)[C@H](O)[C@H](O)CO [MANNITOL]	Not Active	Not Active	Not Active	Not Active	Not Active	Not Active	Not Active	Not Active				
CCN(CC)C(=S)SSC(=S)N(CC)CC	Not Active	Not Active	Not Active	Not Active	Not Active		Not Active	Not Active	23.7	18.3		
O=C(O)c1cc(/N=N/c2ccc(S(=O)(=O)Nc3ccccn3)cc2)ccc1O [SULFASALAZINE]	Not Active	Not Active	Not Active	Not Active	Not Active	Not Active	Not Active	Not Active				
O=C(c1ccccc1)c1ccc2n1CCC2C(=O)O (stereo unspecified) [KETOROLAC]	Not Active	Not Active	Not Active	Not Active	Not Active	Not Active	Not Active	Not Active				
CC[C@H](C)[C@@H](CO[C@@H](Cc1ccccc1)C(=O)N[C@@H](CCS(C)(=O)=O)C(=O)OC(C)C)NC[C@@H](N)CS	Not Active	Not Active	Not Active	Not Active	Not Active	Not Active	Not Active	Not Active				
CC(C)(C)NC[C@H](O)COc1cccc2c1CCCC2=O [LEVOBUNOLOL]		Not Active	Not Active	Not Active	Not Active	Not Active	Not Active	Not Active			6.9	3.99
C[N+]1(C)[C@@H]2C[C@@H](OC(=O)[C@H](CO)c3ccccc3)C[C@H]1[C@@H]1O[C@@H]12.[Br-] [METHSCOPOLAMINE BROMIDE]	Not Active	Not Active	Not Active	Not Active	Not Active	Not Active	Not Active	Not Active				
CO[C@@H]1[C@@H](OC)[C@H](C)[C@@](O)(CC(=O)O)O[C@H]1[C@H](C)[C@H]1O[C@@]2(CC[C@@](C)([C@H]3CC[C@@](C)([C@@H]4O[C@@H]([C@H]5O[C@](C)(O)[C@H](C)C[C@@H]5C)C[C@@H]4O[C@@H]4C[C@H](OC)[C@@H](OC)[C@H](C)O4)O3)O2)C[C@H](O)[C@H]1C.N [MADURAMICIN]	Not Active	Not Active	Not Active	Not Active	Not Active	Not Active	Not Active	Not Active				
Cc1nnc(NS(=O)(=O)c2ccc(N)cc2)s1 [SULFAMETHIZOLE]	Not Active	Not Active	Not Active	Not Active	Not Active	Not Active	Not Active	Not Active				
Cc1cnc(NC(=O)C2=C(O)c3ccccc3S(=O)(=O)N2C)s1 [MELOXICAM]	Not Active	Not Active	Not Active	Not Active	Not Active	Not Active	Not Active	Not Active				
CC1=C(/C=C/C(C)=C/C=C/C(C)=C/C(=O)O)C(C)(C)CCC1 [TRETINOIN]	Not Active	Not Active	Not Active	Not Active	Not Active	Not Active	Not Active	Not Active				
